From patent US8119651B2, “Compositions useful especially for treatment or prevention of metabolic syndrome” (Biotie Therapies Corp., priority 2004, dated 2012) come the findings set out here.

Where “and” joins values, the source holds several entries; their conditions need not be identical. Identical values can stand only once. Like-named read-outs stand apart in the source and are kept apart here.

The target of data set [1] is T1, SSAO activity of VAP-1 transfected CHO cells (Homo sapiens, UniProt Q16853).
T1 construct: expressed in transfected cells; host or cells: CHO cells
T1 sequence (Q16853 1-763): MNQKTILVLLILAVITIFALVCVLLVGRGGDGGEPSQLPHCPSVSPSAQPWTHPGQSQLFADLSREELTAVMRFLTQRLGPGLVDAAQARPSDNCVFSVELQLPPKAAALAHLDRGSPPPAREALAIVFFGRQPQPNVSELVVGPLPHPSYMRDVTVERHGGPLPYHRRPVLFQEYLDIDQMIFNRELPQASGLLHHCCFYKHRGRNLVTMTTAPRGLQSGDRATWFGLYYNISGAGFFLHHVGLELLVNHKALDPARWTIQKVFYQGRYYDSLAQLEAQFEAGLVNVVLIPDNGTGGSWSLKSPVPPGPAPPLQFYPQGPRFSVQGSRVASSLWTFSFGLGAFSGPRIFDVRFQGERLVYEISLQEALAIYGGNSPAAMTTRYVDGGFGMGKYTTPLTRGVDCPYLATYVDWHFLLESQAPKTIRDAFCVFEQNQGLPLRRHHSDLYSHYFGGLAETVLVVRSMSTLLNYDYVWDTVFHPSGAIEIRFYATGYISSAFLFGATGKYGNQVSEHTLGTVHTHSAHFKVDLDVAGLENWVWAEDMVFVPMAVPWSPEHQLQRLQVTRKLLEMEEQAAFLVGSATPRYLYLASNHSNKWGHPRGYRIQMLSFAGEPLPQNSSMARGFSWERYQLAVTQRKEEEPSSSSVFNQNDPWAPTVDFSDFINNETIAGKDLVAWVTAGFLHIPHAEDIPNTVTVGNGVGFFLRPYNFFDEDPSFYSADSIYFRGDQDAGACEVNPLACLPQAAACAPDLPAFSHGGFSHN
The data set is described as follows: Fluorometric detection of SSAO-mediated H2O2 formation (Amplex Red). It is filed as cell-based. As to conditions: for Inhibition of SSAO activity (controls): 1 mg/ml, VAP-1 transfected CHO cells. Here is the method:
Molecular Probes Europe BV), a highly sensitive and stable probe for H2O2. […] Catalytic reaction was initiated by addition of benzylamine as substrates and H2O2-detecting mixture containing horseradish peroxidase (final concentration 0.8 U/ml) and Amplex Red reagent (60 μM). The plates were incubated for 1-2 hours at 37° C. in the final volume of 250 μl, the bathing medium was clarified by centrifugation and placed in aliquots (200 μl) into white non-phosphorescent microplates (Cliniplate). Fluorescence intensity of the samples was measured (excitation, 545 nm; emission, 590 nm; Tecan ULTRA fluoropolarometer) and H2O2 concentration was calculated from calibration curves generated by serial dilutions of either standard H2O2 or resorufin, the product of the Amplex Red reaction (Molecular Probes).

Data set [2] deals with T2, serum VAP-1/SSAO (Homo sapiens, UniProt Q16853).
T2 sequence (Q16853 27-763 limits assumed): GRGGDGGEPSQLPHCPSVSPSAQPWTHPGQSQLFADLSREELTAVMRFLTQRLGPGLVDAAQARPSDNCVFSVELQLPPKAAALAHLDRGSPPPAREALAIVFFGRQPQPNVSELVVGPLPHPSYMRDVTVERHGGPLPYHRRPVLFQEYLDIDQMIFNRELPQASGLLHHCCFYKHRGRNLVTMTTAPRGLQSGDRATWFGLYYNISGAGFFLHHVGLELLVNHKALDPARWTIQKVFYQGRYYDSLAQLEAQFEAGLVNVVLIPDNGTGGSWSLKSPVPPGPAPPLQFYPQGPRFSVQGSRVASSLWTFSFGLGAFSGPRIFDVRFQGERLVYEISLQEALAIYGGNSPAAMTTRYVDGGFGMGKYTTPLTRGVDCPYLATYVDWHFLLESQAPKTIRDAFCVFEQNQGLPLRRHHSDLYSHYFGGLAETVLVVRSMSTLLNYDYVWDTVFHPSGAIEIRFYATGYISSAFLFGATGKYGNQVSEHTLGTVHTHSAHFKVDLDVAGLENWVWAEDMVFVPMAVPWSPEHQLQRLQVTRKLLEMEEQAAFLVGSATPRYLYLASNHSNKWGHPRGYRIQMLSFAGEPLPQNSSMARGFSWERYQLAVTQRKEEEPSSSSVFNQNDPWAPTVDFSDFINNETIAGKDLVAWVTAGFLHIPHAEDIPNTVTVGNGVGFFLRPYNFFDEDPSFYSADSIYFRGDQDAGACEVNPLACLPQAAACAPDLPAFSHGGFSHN
The data set is described as follows: Serum VAP-1/SSAO enzymatic activity of volunteers before and after oral intake.

Data set [3] addresses serum VAP-1/SSAO (Homo sapiens, UniProt Q16853). As for the experimental part: Amine oxidase activity was assayed radiochemically using [7-^14C]-benzylamine hydrochloride (spec. act. 57 mCi/mmol, Amersham) as a substrate and 25 microliters of serum. […] Potential inhibition of serum VAP-1/SSAO enzymatic activity was measured in presence of indicated concentrations of thiamine. Finally, enzymatic activity of serum VAP-1/SSAO of six volunteers was measured before and after eating vitamin B1 100 mg/day for 5 to 9 days. Similarly serum VAP-1/SSAO activity of four volunteers eating benfothiamine 200 mg/day for four days was measured.

For data set [4], the target named is T3, amine oxidase, copper containing 3 (AOC3) (Homo sapiens, UniProt Q16853).
T3 sequence (Q16853 1-763): T1 sequence (Q16853 1-763)
The data set is described as follows: Enzyme inhibiting activity of FP-1113 versus thiamine (FIG. 3). As for the experimental part: The enzyme inhibiting activity was tested as described above.

The subject of data set [5] is mTIEhVAP-1 transgenic mice. The data set is described as follows: Glucose challenge of mTIEhVAP-1 transgenic and non-transgenic mice. The settings on record: methylamine supplemented water; 2.0 g IP glucose/kg. It is filed as in vivo. Here is the method: (§1) The increases in blood glucose over fasting blood glucose levels at 30, 60, 90, and 120 minutes after glucose challenge (2.0 g IP glucose/kg body weight) are expressed as mean±SEM. FIG. 1A: Glucose challenge of 26 week old non-transgenic (open symbols) and mTIEhVAP-1 transgenic mice (filled symbols) with normal tap water (solid lines) or with methylamine supplemented water (dashed lines). FIG. 1B: Glucose challenge of 10-12 week old transgenic mice with normal tap water (solid line) followed by 16 days of treatment with methylamine supplemented water (squares and dashed lines), and methylamine supplemented water as well as SSAO inhibitor injections (triangles and dashed lines). FIG. 1C: The mean±SEM percent of glycosylated hemoglobin (HbAlc) was determined from the blood of fasted, 57-59 week old non-transgenic (white bars) and transgenic (black bars) mice with (gray strips) or without oral methylamine supplementation. […]
The increases in blood glucose over fasting blood glucose levels at 30, 60, 90, and 120 minutes after glucose challenge (2.0 g IP glucose/kg body weight) are expressed as mean+SEM. […] (C) The mean±SEM percent of glycosylated hemoglobin (HbAlc) was determined from the blood of fasted, 57-59 week old non-transgenic (white bars) and transgenic (black bars) mice with (gray strips) or without oral methylamine supplementation. […]

Data set [6] concerns mice. The data set can be described thus: Systolic arterial blood pressure and heart rate, tail cuff method. It is filed as in vivo. As to conditions: methylamine supplementation. Here is the method:
Systolic arterial blood pressure and heart rate were measured in all of the groups using the tail cuff method. […] A trend for elevated blood pressure was also found with the transgene alone.

Data set [7] relates to mice. The data set is described as follows: Aorta surface area positive for Oil Red O staining (atherosclerosis). It is filed as in vivo. The settings on record: methylamine supplementation, versus untreated controls. Here is the method: The percentage of aorta surface area positive for Oil Red O staining was determined for the mice in each group.
Data set [8] relates to mice. The data set is described as follows: Glycosylated hemoglobin (HbAlc) in blood of fasted mice. It is filed as in vivo. As to conditions: oral methylamine supplementation, 57-59 week old mice. Here is the method: as §1, with “mean+SEM. (A)” for “mean±SEM. FIG. 1A:”, “Significant effects on the rate of glucose clearance were identified by comparing the areas under the curve (AUC) of individual mice with an ANOVA (methylamine p=0.0002 and methylamine/transgene interaction p=0.046) and by comparing glucose levels at individual time points with unpaired Student's t-tests (asterisks, p<0.01 versus non-transgenic mice with normal water; crosses, p<0.02 versus non-transgenic mice with methylamine). (B)” for “FIG. 1B:”, “[…] (C)” for “FIG. 1C:”

Where [9] appears, read: volunteers, 100 mg/day for 5 to 9 days.

For the molecule `CC1(C)S[C@@H]2[C@H](NC(=O)[C@H](N)c3ccccc3)C(=O)N2[C@H]1C(=O)O` [ampicillin], the “Inhibition of SSAO activity (controls)” value in data set [1] is “did not inhibit the activity”.

On to `C/C(=C(\CCOP(=O)(O)O)SC(=O)c1ccccc1)N(C=O)Cc1cnc(C)nc1N` [benfothiamine, benfotiamine], for which, at serum VAP-1/SSAO [2] (four volunteers, 200 mg/day for four days), the “Decrease of SSAO activity, each individual” value is 9% and 24% and 8% and 27%.

Take penicillin: the “Inhibition of SSAO activity (controls)” value in data set [1] is “did not inhibit the activity”.

In data set [1] (CHO, thiamine 63 μg/ml, VAP-1 transfected cells), `Cc1ncc(C[n+]2csc(CCO)c2C)c(N)n1` [Thiamine, thiamine] showed an inhibition at 63 µg/mL of 10.5 ± 8.5%. This molecule came in with an inhibition at 125 µg/mL in data set [1] (CHO, thiamine 125 μg/ml, VAP-1 transfected cells) of 26.5 ± 11%. Besides, at 175 µg/mL the inhibition in data set [1] (CHO, thiamine 175 μg/ml, VAP-1 transfected cells) was 35.5 ± 2.5%. Further, the inhibition at 250 µg/mL in data set [1] (CHO, thiamine 250 μg/ml, VAP-1 transfected cells) stood at 42 ± 2%. Besides, the inhibition at 375 µg/mL in data set [1] (CHO, thiamine 375 μg/ml, VAP-1 transfected cells) was found to be 47 ± 9%. Moreover, in data set [1] (CHO, thiamine 500 μg/ml, VAP-1 transfected cells), 500 µg/mL produced 61.5 ± 2.5% inhibition. The “Decrease of serum VAP-1/SSAO activity in vitro” value at serum VAP-1/SSAO [3] (1 mg/ml) worked out at 87%; on serum VAP-1/SSAO [3] (200 micrograms/ml), 32%; at serum VAP-1/SSAO [3] (400 micrograms/ml), 39%; at serum VAP-1/SSAO [3] (800 micrograms/ml), 70%. Further, at serum VAP-1/SSAO [2] (setting [9]), the “Decrease of VAP-1 enzyme activity at the end of the experiment, mean of responders” value came out at 19%. Also, the Volunteers responding result on serum VAP-1/SSAO [2] (setting [9]) is given as “Four of the six volunteers responded”. The “Decrease of VAP-1 enzyme activity at the end of the experiment, individual responders” value at serum VAP-1/SSAO [2] (volunteers, 100 mg/day for 5 to 9 days, listed as vitamin B1) was 25% and 2% and 32% and 16%.

As to `Cc1c(CCO)sc[n+]1Cc1ccccc1N.Cl.[Cl-]` [FP-1113, 3-(2-aminobenzyl)-5-(2-hydroxyethyl)-4-methyl-thiazolium Chloride Hydrochloride], the “SSAO inhibition compared with thiamine” value in data set [4] is “stronger SSAO-inhibitor than thiamine”.

Consider `CN` [methylamine], for which the “Glucose tolerance after glucose challenge” value in data set [5] is given as “enhance glucose tolerance”. For the same molecule, in the data set with mice [6], the Heart rate result is listed as “did not affect heart rate” and the “Systolic arterial blood pressure” value is given as “significantly elevated blood pressure”. The “Percentage of lesion formation in aorta” value in the data set with mice [7] is on record as “increased the percentage of lesion formation”. For the same molecule, in the data set with mice [8], the HbAlc levels result is on record as “decreased”.
